# Data published in ChEMBL document CHEMBL3421545, “Discovery of novel non-covalent inhibitors selective to the β5-subunit of the human 20S proteasome” (Eur J Med Chem, 2015).
# Assays:
# [1] = molecular target: T1, Proteasome Macropain subunit MB1 (Homo sapiens, UniProt P28074); assay: Inhibition of chymotrypsin-like activity of human beta-5 subunit of 20S proteasome using Suc-LLVY-AMC as substrate by fluorometer analysis
# T1 sequence (P28074 whole entry): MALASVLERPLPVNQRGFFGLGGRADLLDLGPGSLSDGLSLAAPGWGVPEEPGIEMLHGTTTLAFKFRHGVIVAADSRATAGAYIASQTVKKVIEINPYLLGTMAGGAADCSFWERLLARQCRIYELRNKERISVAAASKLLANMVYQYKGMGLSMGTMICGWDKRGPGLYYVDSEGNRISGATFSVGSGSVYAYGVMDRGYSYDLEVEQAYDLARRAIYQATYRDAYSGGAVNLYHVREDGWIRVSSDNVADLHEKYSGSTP
# [2] = molecular target: Proteasome subunit beta type-7, β2, trypsin-like (Homo sapiens) (UniProt Q99436); assay: Inhibition of trypsin-like activity of human beta-2 subunit of 20S proteasome using Bz-VGR-AMC as substrate at 10 ug/ml by fluorometer analysis
# Chain of Proteasome subunit beta type-7, β2, trypsin-like (Homo sapiens) (Q99436 whole entry, looked up): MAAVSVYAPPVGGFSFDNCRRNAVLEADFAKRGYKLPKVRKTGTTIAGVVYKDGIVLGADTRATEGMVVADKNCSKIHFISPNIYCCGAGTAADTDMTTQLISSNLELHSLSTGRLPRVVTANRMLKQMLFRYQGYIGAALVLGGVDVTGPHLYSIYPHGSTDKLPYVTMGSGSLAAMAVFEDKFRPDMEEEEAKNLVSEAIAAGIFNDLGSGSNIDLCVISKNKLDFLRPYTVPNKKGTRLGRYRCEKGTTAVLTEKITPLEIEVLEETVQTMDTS
# [3] = molecular target: Proteasome subunit beta type-6, β1, caspase-like (Homo sapiens) (UniProt P28072); assay: Inhibition of caspase-like activity of human beta-1 subunit of 20S proteasome using (Z)-LLE-bNA as substrate at 10 ug/ml by fluorometer analysis
# Chain of Proteasome subunit beta type-6, β1, caspase-like (Homo sapiens) (P28072 whole entry, looked up): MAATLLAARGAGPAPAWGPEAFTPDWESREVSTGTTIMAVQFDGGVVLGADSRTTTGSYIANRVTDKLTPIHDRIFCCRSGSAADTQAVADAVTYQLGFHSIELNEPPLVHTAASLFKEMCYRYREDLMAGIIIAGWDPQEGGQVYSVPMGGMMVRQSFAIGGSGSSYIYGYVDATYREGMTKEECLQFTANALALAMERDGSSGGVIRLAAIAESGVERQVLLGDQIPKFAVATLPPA
# [4] = Inhibition of chymotrypsin-like activity of 20S proteasome isolated from human THP1 cells using Suc-Leu-Leu-Val-Tyr-MCA as substrate by fluorometer analysis; type: cell-free; conditions: thp-1
Compound,IC50 ([1]; read-out: IC50),IC50 [1],further results
COc1ccc(CNC(=O)[C@@H](NC(=O)[C@H](CCCCNC(=O)OCc2ccccc2)NC(=O)Cc2cccc(Oc3ccccc3)c2)C(C)C)c(O)c1,11.7 µM,,
CC(C)[C@H](NC(=O)[C@H](CC(N)=O)NC(=O)Cc1cccc(Oc2ccccc2)c1)C(=O)N[C@H](C(=O)O)[C@H](C)O,13.9 µM,,
COc1ccc(CNC(=O)[C@@H](NC(=O)[C@H](CC(N)=O)NC(=O)Cc2cccc(Oc3ccccc3)c2)C(C)C)c(O)c1,0.66 µM,,inhibition [2]: < 50%; inhibition [3]: < 50%
CC(C)[C@H](NC(=O)[C@H](CC(N)=O)NC(=O)Cc1cccc(Oc2ccccc2)c1)C(=O)N[C@H](C(=O)OCc1ccccc1)[C@H](C)O,0.92 µM,,inhibition [2]: < 50%; inhibition [3]: < 50%
CC(C)[C@H](NC(=O)[C@H](CC(N)=O)NC(=O)Cc1cccc(Oc2ccccc2)c1)C(=O)OCc1ccccc1,17.3 µM,,
CC(C)[C@H](NC(=O)[C@H](CC(N)=O)NC(=O)Cc1cccc(Oc2ccccc2)c1)C(=O)N[C@@H](C)c1ccccc1,,Not Active,
CCCNC(=O)[C@@H](NC(=O)[C@H](CC(N)=O)NC(=O)Cc1cccc(Oc2ccccc2)c1)C(C)C,13 µM,,
COc1ccc(CNC(=O)[C@@H](NC(=O)[C@H](CC(N)=O)NC(=O)Cc2cccc(Oc3ccccc3)c2)C(C)C)c(OC)c1,,Not Active,
COc1ccc(CNC(=O)[C@@H](NC(=O)[C@H](CCC(N)=O)NC(=O)Cc2cccc(Oc3ccccc3)c2)C(C)C)c(O)c1,1.63 µM,,
COC(=O)[C@@H](NC(=O)[C@@H](NC(=O)[C@H](CC(N)=O)NC(=O)Cc1cccc(Oc2ccccc2)c1)C(C)C)[C@H](C)O,0.29 µM,,inhibition [2]: < 50%; inhibition [3]: < 50%
COc1ccc(CNC(=O)[C@@H](NC(=O)[C@H](CCCCN)NC(=O)Cc2cccc(Oc3ccccc3)c2)C(C)C)c(O)c1,,Not Active,
CC(C)[C@H](NC(=O)[C@H](CC(N)=O)NC(=O)Cc1cccc(Oc2ccccc2)c1)C(=O)NCCO,17.2 µM,,
CC(C)[C@H](NC(=O)[C@H](CC(N)=O)NC(=O)Cc1cccc(Oc2ccccc2)c1)C(=O)N[C@H](C)c1ccccc1,,Not Active,
CC(C)[C@H](NC(=O)[C@H](CC(N)=O)NC(=O)Cc1cccc(Oc2ccccc2)c1)C(=O)O,,Not Active,
C/C=C\NC(=O)[C@H]1NC(=O)[C@@H](CC(N)=O)NC(=O)[C@@H](NC(=O)C(=O)[C@@H](C)CC)Cc2ccc(O)c(c2)-c2cccc3c2NC(=O)[C@@]3(O)[C@@H]1O,,,IC50 [4]: 0.0054 µM
CC(C)[C@H](NC(=O)[C@H](CC(N)=O)NC(=O)Cc1cccc(Oc2ccccc2)c1)C(=O)NCCc1ccccc1,,Not Active,
